# Measurements: patent publication US8410068B2, “Compounds for the treatment or alleviation of edema, and methods for their use” (Index Pharmaceuticals AB, priority 2007, dated 2013)
# Values joined by “and” are separate entries in the source; they are usually repeats but may differ in a detail not shown here. Equal values may be shown once.
# Legend:
# [1] = test system: tetradecanoylphorbol 13-acetate (TPA) induced ear edema; assay: TPA-induced ear edema model; assay type: in vivo, mice
# Protocol: A stock solution of TPA was prepared by dissolving TPA in DMSO, 1 mg/mL, and was stored frozen at −80° C. For study B-E, a working solution was prepared with 200 μL of the TPA stock solution added to 800 μL acetone. The working solution was used the same day as it was prepared.
# Each cage was identified by a cage card marked with study number, group number, ethical approval number, sex and animal ear numbers. The animals were individually marked on the tail with transverse lines corresponding to the animals' number, using a permanent-ink felt pen. An illustration of the protocols used for the different treatments is outlined in Table 4. The compounds were tested according to the same protocols with necessary modifications.
# Intraperitoneal (i.p.) injections were performed by giving 100 μL in the lower right quadrant of the abdomen. Subcutaneous injections were done with 100 μL in the neck region. Intranasal administration was performed by letting the mouse inhale droplets into the nostrils, total volume 40 μL. All administrations were done on non-anesthetized mice.
# (§1) Both outer ears of a non-anesthetized mouse were washed with mild soap (Palmolive, Sweden) using a soft tooth brush, the ears were dried with tissue and cleaned with tissue soaked with acetone. After allowing the acetone to evaporate, TPA or AA was applied on both sides, 10 μL, on each side of the ear with care to cover the whole ear. The mouse was held for 20 seconds to allow the solvent to evaporate.
# Intraperitoneal injections were given in the lower right quadrant of the abdomen with the animal held in a supine position. Subcutaneous (s.c.) injections were given in the neck of the animals. Intranasal administrations were given to mice held in a slightly reclining position. With an adjustable micro-pipette 40 μL of the test substance was given in droplets on the nostrils and the mouse was allowed to aspirate at free will.
# (§2) The ears of non-anesthetized mice were measured at different time points for up to 96 hours after the TPA was administered, or up to 24 hours for the AA model. The first measurements were done before the edema was induced. The thickness was recorded with a spring loaded dial micrometer (Limit, Thickness Gauge, accuracy 0.01 mm, contact area Ø6 mm, Luna AB, Allingsås, Sweden) in triplicates at all time points per ear.
# (§3) The average thickness for both ears on a mouse was calculated and compared to the average thickness of the ears at the starting time point. The value obtained at the start of the experiment was set as 100%. The peak values and area under the curve (AUC) values for the treatment groups were calculated and compared to the inflamed control group, treated with PBS (set as 100%), and expressed as a percentage change (Δ% AUC).
# (§4) Area under the curve (AUC) with base line set as 100 was calculated using GraphPad Prism version 4.03 for Windows (GraphPad Software, San Diego Calif. USA, www.graphpad.com).
# AUC reduction and P-values were calculated against the positive control (TPA or AA+PBS).
# [2] = test system: arachidonic acid (AA) induced ear edema; assay: Arachidonic acid (AA) induced ear edema model; assay type: in vivo, mice; conditions: 10 μg one single s.c. injection 20 minutes before AA; compared to PBS control
# Protocol: A stock solution of AA was prepared by diluting AA in acetone, 4 mg/10 μL, and was stored frozen at −80° C. A final working solution, 1 mg/10 μL, in acetone was prepared. The working solution was used within one hour after preparation.
# as §1, §2, §3, §4
# In addition to the experiments done with the control compounds and IDX0001, all other test compounds were investigated in a similar fashion in the TPA and/or AA ear edema models, where the test compounds were given subcutaneously (10 μg) 20 minutes before induction of edema. The results were expressed as reduction of peak value and reduction of area under curve (AUC) in Table 5.
# [3] = test system: thioglycolate induced pleurisy; assay: Thioglycolate induced pleurisy; assay type: in vivo, C57/Bl6 mice; conditions: 50 μg/mouse i.p. 20 min before induction of pleurisy
# Protocol: Mice were anesthetized by an intraperitoneal injection of 0.15-0.20 ml of a mixture of ketamine (Ketalar® Parke-Davis; 25 mg/ml) and xylazine (Narcoxyl Vet.® Veterinaria AG; 5 mg/ml).
# The left jugular vein was cannulated with polyethylene tubing (PE10) for intravenous administration (i.v.). A skin incision was made on the right side of the chest. Following dissection of the underlying muscle, pleurisy (inflammation of the lung sack) was induced by a single intrapleural injection of 100 μl of thioglycolate (Sigma). Sterile PBS was used as negative control.
# FITC-conjugated dextran in PBS (100 μl, 30 mg/ml) was injected i.v. After 4 h, the animals were euthanized with an overdose of anaesthesia, the chest was carefully opened and the exudate was removed by aspiration and the volume noted. The thorax was then rinsed with 1 ml of ice-cold 3 mM EDTA in PBS. Exudate which was contaminated with red blood cells was discarded.
# The exudate and rinsed material was centrifuged at 1500 g for 5 min and the supernatant was used for measurement of fluorescence intensity in a fluorometer (Fluoroskan Acsent, LabSystems) and clearance volume of FITC-dextran was calculated. […]
# Cells from the exudate were stained with neutrophil and macrophage specific antibodies and were analyzed by flow cytometry (FACSort and CellQuest software, BD). […]
substance,measurement,setting,value
"G*G*A*ACAGTTCGTCCAT*G*G*C (phosphorothioate linkages, as printed in the source, key not given here) [IDX0150, oligonucleotide used as control; * = phosphorothioate modification]",average inflammatory peak value of swelling,"[1]; FIG. 2, 100 μg IDX0150, combined from 10 experiments, vs PBS vehicle with TPA, P<0.001",very high statistical significant reduction in peak values
same,Reduction of AUC compared to PBS,"[1]; Study A / FIG. 1, 100 μg, one single injection (i.p. in Study A, s.c. in FIG. 1) 20 min before TPA, day 0",−38.9%
same,reduction of AUC,"[1]; Study B, 100 μg s.c. 4 days before induction of edema",no reduction of AUC
same,reduction of AUC,"[1]; Study C (repeat of B), 100 μg s.c. 4 days before induction of edema",−22%
same,reduction of AUC,"[1]; Study D, 100 μg s.c. 2 days before induction of edema",−16.5%
same,reduction of AUC,"[1]; Study E, 100 μg s.c. same day, approx. 20 min before induction",−27.3%
same,reduction of AUC,"[1]; Study F, equal doses 50 μg s.c. same day as swelling induced",−31.1%
same,reduction of AUC,"[1]; Study G, therapeutic, 100 μg s.c. 2 hours after induction of edema",−42.3%
same,reduction of AUC,"[1]; Study H, 100 μg intranasal 4 days before swelling induced",−25.7%
same,reduction of AUC,"[1]; Study I, 100 μg intranasal day 0, same day as edema induced",−28.4%
same,AUC reduced,"[1]; Study J, therapeutic, 100 μg intranasal 2 hours after induction",−28.8%
same,reduction of AUC,"[1]; Study K dose response, 0.1 μg s.c. day 0",−13.9%
same,reduction of AUC,"[1]; Study K dose response, 1 μg s.c. day 0",−16.3%
same,reduction of AUC,"[1]; Study K dose response, 10 μg s.c. day 0",−27.9%
same,reduction of AUC,"[1]; Study K dose response, 100 μg s.c. day 0",−45%
same,reduction of AUC,"[1]; Study O, 10 μg given s.c. on day 0 (Table 4: i.n.)",−25.5%
same,AUC reduction (%) AA,[2],−89.4%
same,reduction of number of PMN in pleural exudates,[3]; compared to inflamed mice (PBS),42% and 40.9%
same,reduction in clearance volume of pleural edema (vascular permeability),[3]; compared to thioglycolate treatment,68.2% and 69.2%
